# Experimental data reported in BigSolDB 2.1.
smiles,measurement,setting,value
O=C(O)Cc1ccccc1Cl,solubility (mole fraction),"in 2-butanone, 273.15 K",0.254
same,solubility (mole fraction),"in 2-butanone, 278.15 K",0.282
same,solubility (mole fraction),"in 2-butanone, 283.15 K",0.315
same,solubility (mole fraction),"in 2-butanone, 288.15 K",0.351
same,solubility (mole fraction),"in 2-butanone, 293.15 K",0.389
same,solubility (mole fraction),"in 2-butanone, 298.15 K",0.426
same,solubility (mole fraction),"in 2-butanone, 303.15 K",0.462
same,solubility (mole fraction),"in 2-butanone, 308.15 K",0.496
same,solubility (mole fraction),"in 2-butanone, 313.15 K",0.528
same,solubility (mole fraction),"in 2-butanone, 318.15 K",0.567
same,solubility (mole fraction),"in acetone, 273.15 K",0.209
same,solubility (mole fraction),"in acetone, 278.15 K",0.225
same,solubility (mole fraction),"in acetone, 283.15 K",0.242
same,solubility (mole fraction),"in acetone, 288.15 K",0.261
same,solubility (mole fraction),"in acetone, 293.15 K",0.281
same,solubility (mole fraction),"in acetone, 298.15 K",0.303
same,solubility (mole fraction),"in acetone, 303.15 K",0.326
same,solubility (mole fraction),"in acetone, 308.15 K",0.352
same,solubility (mole fraction),"in acetone, 313.15 K",0.38
same,solubility (mole fraction),"in acetone, 318.15 K",0.412
same,solubility (mole fraction),"in acetonitrile, 273.15 K",0.0582
same,solubility (mole fraction),"in acetonitrile, 278.15 K",0.0738
same,solubility (mole fraction),"in acetonitrile, 283.15 K",0.0925
same,solubility (mole fraction),"in acetonitrile, 288.15 K",0.114
same,solubility (mole fraction),"in acetonitrile, 293.15 K",0.139
same,solubility (mole fraction),"in acetonitrile, 298.15 K",0.168
same,solubility (mole fraction),"in acetonitrile, 303.15 K",0.199
same,solubility (mole fraction),"in acetonitrile, 308.15 K",0.234
same,solubility (mole fraction),"in acetonitrile, 313.15 K",0.272
same,solubility (mole fraction),"in acetonitrile, 318.15 K",0.314
same,solubility (mole fraction),"in cyclohexane, 283.15 K",0.00197
same,solubility (mole fraction),"in cyclohexane, 288.15 K",0.00263
same,solubility (mole fraction),"in cyclohexane, 293.15 K",0.00346
same,solubility (mole fraction),"in cyclohexane, 298.15 K",0.00454
same,solubility (mole fraction),"in cyclohexane, 303.15 K",0.00601
same,solubility (mole fraction),"in cyclohexane, 308.15 K",0.00799
same,solubility (mole fraction),"in cyclohexane, 313.15 K",0.0107
same,solubility (mole fraction),"in cyclohexane, 318.15 K",0.0145
same,solubility (mole fraction),"in ethyl acetate, 273.15 K",0.175
same,solubility (mole fraction),"in ethyl acetate, 278.15 K",0.193
same,solubility (mole fraction),"in ethyl acetate, 283.15 K",0.214
same,solubility (mole fraction),"in ethyl acetate, 288.15 K",0.237
same,solubility (mole fraction),"in ethyl acetate, 293.15 K",0.258
same,solubility (mole fraction),"in ethyl acetate, 298.15 K",0.284
same,solubility (mole fraction),"in ethyl acetate, 303.15 K",0.312
same,solubility (mole fraction),"in ethyl acetate, 308.15 K",0.342
same,solubility (mole fraction),"in ethyl acetate, 313.15 K",0.372
same,solubility (mole fraction),"in ethyl acetate, 318.15 K",0.407
same,solubility (mole fraction),"in ethylbenzene, 273.15 K",0.0217
same,solubility (mole fraction),"in ethylbenzene, 278.15 K",0.0278
same,solubility (mole fraction),"in ethylbenzene, 283.15 K",0.0348
same,solubility (mole fraction),"in ethylbenzene, 288.15 K",0.0437
same,solubility (mole fraction),"in ethylbenzene, 293.15 K",0.0542
same,solubility (mole fraction),"in ethylbenzene, 298.15 K",0.0678
same,solubility (mole fraction),"in ethylbenzene, 303.15 K",0.0853
same,solubility (mole fraction),"in ethylbenzene, 308.15 K",0.106
same,solubility (mole fraction),"in ethylbenzene, 313.15 K",0.132
same,solubility (mole fraction),"in ethylbenzene, 318.15 K",0.165
same,solubility (mole fraction),"in isobutanol, 273.15 K",0.15
same,solubility (mole fraction),"in isobutanol, 278.15 K",0.172
same,solubility (mole fraction),"in isobutanol, 283.15 K",0.199
same,solubility (mole fraction),"in isobutanol, 288.15 K",0.226
same,solubility (mole fraction),"in isobutanol, 293.15 K",0.256
same,solubility (mole fraction),"in isobutanol, 298.15 K",0.288
same,solubility (mole fraction),"in isobutanol, 303.15 K",0.322
same,solubility (mole fraction),"in isobutanol, 308.15 K",0.357
same,solubility (mole fraction),"in isobutanol, 313.15 K",0.394
same,solubility (mole fraction),"in isobutanol, 318.15 K",0.433
same,solubility (mole fraction),"in isopropanol, 273.15 K",0.18
same,solubility (mole fraction),"in isopropanol, 278.15 K",0.206
same,solubility (mole fraction),"in isopropanol, 283.15 K",0.235
same,solubility (mole fraction),"in isopropanol, 288.15 K",0.266
same,solubility (mole fraction),"in isopropanol, 293.15 K",0.298
same,solubility (mole fraction),"in isopropanol, 298.15 K",0.336
same,solubility (mole fraction),"in isopropanol, 303.15 K",0.369
same,solubility (mole fraction),"in isopropanol, 308.15 K",0.407
same,solubility (mole fraction),"in isopropanol, 313.15 K",0.446
same,solubility (mole fraction),"in isopropanol, 318.15 K",0.486
same,solubility (mole fraction),"in n-butanol, 273.15 K",0.142
same,solubility (mole fraction),"in n-butanol, 278.15 K",0.164
same,solubility (mole fraction),"in n-butanol, 283.15 K",0.19
same,solubility (mole fraction),"in n-butanol, 288.15 K",0.217
same,solubility (mole fraction),"in n-butanol, 293.15 K",0.247
same,solubility (mole fraction),"in n-butanol, 298.15 K",0.28
same,solubility (mole fraction),"in n-butanol, 303.15 K",0.314
same,solubility (mole fraction),"in n-butanol, 308.15 K",0.349
same,solubility (mole fraction),"in n-butanol, 313.15 K",0.387
same,solubility (mole fraction),"in n-butanol, 318.15 K",0.425
same,solubility (mole fraction),"in n-propanol, 273.15 K",0.16
same,solubility (mole fraction),"in n-propanol, 278.15 K",0.184
same,solubility (mole fraction),"in n-propanol, 283.15 K",0.21
same,solubility (mole fraction),"in n-propanol, 288.15 K",0.237
same,solubility (mole fraction),"in n-propanol, 293.15 K",0.268
same,solubility (mole fraction),"in n-propanol, 298.15 K",0.299
same,solubility (mole fraction),"in n-propanol, 303.15 K",0.332
same,solubility (mole fraction),"in n-propanol, 308.15 K",0.368
same,solubility (mole fraction),"in n-propanol, 313.15 K",0.405
same,solubility (mole fraction),"in n-propanol, 318.15 K",0.446
same,solubility (mole fraction),"in toluene, 273.15 K",0.0241
same,solubility (mole fraction),"in toluene, 278.15 K",0.0307
same,solubility (mole fraction),"in toluene, 283.15 K",0.0388
same,solubility (mole fraction),"in toluene, 288.15 K",0.0491
same,solubility (mole fraction),"in toluene, 293.15 K",0.0617
same,solubility (mole fraction),"in toluene, 298.15 K",0.0778
same,solubility (mole fraction),"in toluene, 303.15 K",0.0975
same,solubility (mole fraction),"in toluene, 308.15 K",0.122
same,solubility (mole fraction),"in toluene, 313.15 K",0.153
same,solubility (mole fraction),"in toluene, 318.15 K",0.191
same,solubility (mole fraction),"in water, 273.15 K",0.000141
same,solubility (mole fraction),"in water, 278.15 K",0.000186
same,solubility (mole fraction),"in water, 283.15 K",0.000243
same,solubility (mole fraction),"in water, 288.15 K",0.000311
same,solubility (mole fraction),"in water, 293.15 K",0.000394
same,solubility (mole fraction),"in water, 298.15 K",0.000506
same,solubility (mole fraction),"in water, 303.15 K",0.000645
same,solubility (mole fraction),"in water, 308.15 K",0.000821
same,solubility (mole fraction),"in water, 313.15 K",0.00105
same,solubility (mole fraction),"in water, 318.15 K",0.00134
N=C(Nc1ccccc1)Nc1ccccc1,solubility (mole fraction),"in acetonitrile, 273.15 K",0.00811
same,solubility (mole fraction),"in acetonitrile, 275.65 K",0.00911
same,solubility (mole fraction),"in acetonitrile, 278.15 K",0.0103
same,solubility (mole fraction),"in acetonitrile, 280.65 K",0.011
same,solubility (mole fraction),"in acetonitrile, 283.15 K",0.012
same,solubility (mole fraction),"in acetonitrile, 285.65 K",0.0131
same,solubility (mole fraction),"in ethanol, 273.15 K",0.0139
same,solubility (mole fraction),"in ethanol, 275.65 K",0.0152
same,solubility (mole fraction),"in ethanol, 278.15 K",0.017
same,solubility (mole fraction),"in ethanol, 280.65 K",0.0191
same,solubility (mole fraction),"in ethanol, 283.15 K",0.0192
same,solubility (mole fraction),"in ethanol, 285.65 K",0.0214
same,solubility (mole fraction),"in isobutanol, 273.15 K",0.0128
same,solubility (mole fraction),"in isobutanol, 275.65 K",0.0138
same,solubility (mole fraction),"in isobutanol, 278.15 K",0.0142
same,solubility (mole fraction),"in isobutanol, 280.65 K",0.0166
same,solubility (mole fraction),"in isobutanol, 283.15 K",0.0177
same,solubility (mole fraction),"in isobutanol, 285.65 K",0.0183
same,solubility (mole fraction),"in n-propanol, 273.15 K",0.0152
same,solubility (mole fraction),"in n-propanol, 275.65 K",0.0171
same,solubility (mole fraction),"in n-propanol, 278.15 K",0.0181
same,solubility (mole fraction),"in n-propanol, 280.65 K",0.021
same,solubility (mole fraction),"in n-propanol, 283.15 K",0.0215
same,solubility (mole fraction),"in n-propanol, 285.65 K",0.0241
same,solubility (mole fraction),"in toluene, 273.15 K",0.00134
same,solubility (mole fraction),"in toluene, 275.65 K",0.00149
same,solubility (mole fraction),"in toluene, 278.15 K",0.00178
same,solubility (mole fraction),"in toluene, 280.65 K",0.00189
same,solubility (mole fraction),"in toluene, 283.15 K",0.00219
same,solubility (mole fraction),"in toluene, 285.65 K",0.0024
